Reference: patent publication US20030069200A1, “Use of glucosylceramide synthesis inhibitors in brain cancertherapy” (priority 2000, published 2003)

How the values were obtained:
CT-2A cells = assay: Growth of cultured CT-2A brain tumour cells (Coulter counter cell counts); format: cell-based; settings: NB-DNJ 200 μM
Protocol: (§1) Approximately 0.5×10^4 cells for CT-2A and 1×10^4 cells for EPEN were seeded in wells of a 24 well plate and cultured for 24 hours in DMEM supplemented with 10% FBS. The exact cellular origin of the CT-2A and EPEN tumours is not known, but Dr. Allan Yates, Chief of Neuropathology at Ohio State University classified the tumours as poorly differentiated anaplastic astrocytomas (see Seyfried et al Mol. Chem. Neuropathol. 17: 147-167, 1992).
(§2) Cells were cultured for a further 7 days in the same medium for control cells or in the presence of NB-DNJ (200 μM) for treated cells. Cells were counted on days 2, 4, 6 and 8 using a Coulter counter and the results are shown in FIGS. 2A and 2B where values are expressed as means±SEM (N=3).

EPEN cells = assay: Growth of cultured EPEN brain tumour cells (Coulter counter cell counts); format: cell-based; settings: NB-DNJ 200 μM
Protocol: as §1, §2

CT-2A tumour [1] = assay: Subcutaneous CT-2A tumour growth in C57BL/6 mice; format: in vivo, mouse; settings: NB-DNJ 2400 mg/kg body wt/day in diet, nine days
Protocol: (§3) CT-2A and EPEN tumours were grown subcutaneously in the flanks of six-week old syngeneic C57BL/6 mice. The treated mice were maintained on a powdered mouse chow diet (Prolab, Agway) that contained NB-DNJ (2400 mg/kg body weight/day). The control mice received only the powdered mouse chow. Tumours were enzymatically dissociated as described in Ecsedy et al, J. Lipid Res., 39: 2218-2227, 1998 and approximately 5×10^6 cells from each tumour were inoculated subcutaneously into the flanks of the host mice. For the CT-2A-bearing mice, drug treatment was started six days post-tumour cell inoculation and was continued for a total of nine days. For the EPEN-bearing mice, drug treatment was started eleven days post-tumour inoculation and was continued for a total of ten days. This was done because the EPEN tumour grows more slowly than the CT-2A tumour (Cotterchio et al. 1993. Mol. Chem. Neuropathol. 20:163-172). The method of Looney was used to determine tumour growth rates (volume increase/day) as previously described (Cotterchio et al. 1993. Mol. Chem. Neuropathol. 20:163-172). The results are shown in FIGS. 3A and 3B where values are expressed as means±SEM except for the control EPEN, which is the mean of two independent samples.

EPEN tumour = assay: Subcutaneous EPEN tumour growth in C57BL/6 mice; format: in vivo, mouse; settings: NB-DNJ 2400 mg/kg body wt/day in diet, ten days
Protocol: as §3

CT-2A tumour [2] = assay: Intra-cranial CT-2A tumour growth and ganglioside content in C57BL/6J mice; format: in vivo, mouse
Protocol: (§4) CT-2A tumour tissue was minced and tissue pieces (about 1 mm^3) were implanted into the cerebral cortex of C57BL/6J mice using a trocar as described previously (Seyfried et al. 1987. Cancer Res. 47:3538-3542). The NB-DNJ diet as in Example 2. Control mice received only the powdered mouse chow. Tumours were excised from surrounding brain tissue, frozen, and lyophilized to remove water. Gangliosides were isolated and purified and content expressed as μg sialic acid/100 mg dry weight, as determined using the resorcinol reagent, as previously described (Seyfried et al. 1978. J. Neurochem. 31:21-27).

CT-2A tumour [3] = assay: Ganglioside neuraminic acid content of the CT-2A mouse brain tumour (Table 1); format: in vivo; settings: treated mice, mean of N=2
Protocol: as §4
In addition, NB-DNJ reduced ganglioside content in the CT-2A mouse brain tumour grown subcutaneously (See FIG. 4B and Table 1 below).

neuroblastoma cells = settings: in vitro, cited from earlier work
[4] = intra-cranial CT-2A tumours, NB-DNJ diet

Structure (SMILES) | percentage of dead cells vs control (trypan blue exclusion) (CT-2A cells; CT-2A culture) | growth inhibition of cultured CT-2A tumour cells (CT-2A cells; after 8 days) | percentage of dead cells vs control (trypan blue exclusion) (EPEN cells; EPEN culture) | growth inhibition of cultured EPEN tumour cells (EPEN cells; after 8 days) | reduction of tumour growth rate compared to untreated controls (CT-2A tumour [1]) [%] | reduction of tumour growth rate compared to untreated controls (EPEN tumour) [%] | intra-cranial growth of the CT-2A tumour (CT-2A tumour [2]; NB-DNJ dietary treatment) | blood brain barrier penetration (CT-2A tumour [2]; inferred from the effect on intra-cranial tumours, dietary treatment) | reduction in ganglioside concentration (CT-2A tumour [2]; [4]) [%] | reduction in tumour dry weight (CT-2A tumour [2]; [4]) [%] | Ganglioside Neuraminic Acid Content, NeuAc (CT-2A tumour [3]) [μg/100 mg dry wt] | Ganglioside Neuraminic Acid Content, NeuGc (CT-2A tumour [3]) [μg/100 mg dry wt] | Ganglioside Neuraminic Acid Content, Total (CT-2A tumour [3]) [μg/100 mg dry wt] | ganglioside shedding by neuroblastoma tumours (neuroblastoma cells; Li et al 1996) | neurite outgrowth by neuroblastoma cells (neuroblastoma cells; Uemura et al 1990)
CCCCN1C[C@H](O)[C@@H](O)[C@H](O)[C@H]1CO [NB-DNJ, N-butyldeoxynojirimycin] | did not differ significantly | about 50% | did not differ significantly | about 50% | 68 | 76 | significantly reduced | can penetrate the blood brain barrier | 53 | 55 | 21.8 | 5.6 | 27.1 |  | 
CCCCCCCCCC(=O)N[C@H](CN1CCOCC1)[C@H](O)c1ccccc1 [D-PDMP, D-threo-1-phenyl-2-decanoylamino-3-morpholino-1-propanol] |  |  |  |  |  |  |  |  |  |  |  |  |  | reduces ganglioside shedding | inhibit neurite outgrowth
